Values of other authors, collected in patent publication US6761903B2, “Clear oil-containing pharmaceutical compositions containing a therapeutic agent” (Lipocine, Inc., priority 1999, dated 2004).

Settings: as reported by the manufacturer of the commercial product, rough average or inventors' judgment

| Molecule | HLB |
| --- | --- |
| CCCCCCCC(=O)OCC(O)CO (centres unmarked) [Monocaprylin] | <10 |
| Dicaproin [Dicaproin (C6)] | <10 |
| Sorbitan sesquistearate | 4.2 |
| CCCCCCCCCCCCCCCCCC(=O)OCC(C)OC(=O)CCCCCCCCCCCCCCCCC (centres unmarked) [Propylene glycol distearate] | >6 |
| PEG 100,200,300 monooleate | >10 |
| CCCCC/C=C\C/C=C\CCCCCCCC(=O)OCC(O)CO (centres unmarked) [Glycerol monolinoleate] | 3-4 |
| PEG-30 soya sterol | >10 |
| Dipalmitin [Dipalmitin (C16)] | <10 |
| Polyglyceryl-3 oleate | 6.5 |
| PEG-5 oleyl ether | <10 |
| PEG-6 distearate | 6.5 |
| Polyglyceryl-3 distearate | <10 |
| PEG-2 oleate | 4.5 |
| Polyglyceryl-10 tetraoleate | 6.2 |
| 1,2 and 1,3-diolein [1,2 and 1,3-diolein (C18:1)] | <10 |
| Polyglyceryl-2 oleate | 5-7 |
| CCCCCCCC(=O)OCC(O)CO (centres unmarked) [Glyceryl caprylate] | 5-6 |
| Polyglyceryl-10 septaoleate | 3 |
| PEG-50 stearate | >10 |
| PEG-9 oleate | >10 |
| CCCCCCCCCCCC(=O)OCC(C)OC(=O)CCCCCCCCCCC (centres unmarked) [Propylene glycol dilaurate] | >6 |
| PEG-20 soya sterol | <10 |
| Dilinolein [Dilinolein (C18:2)] | <10 |
| PEG-12 ricinoleate | >10 |
| CCCCCCCCCCCCCCCCCC(=O)OCCO [PEG-1 stearate] | 2 |
| PEG-15 stearate | 14 |

| Molecule | HLB |
| --- | --- |
| PEG 4-100 monostearate | >6 |
| Sucrose dipalmitate | 7.4 |
| PEG-30 stearate | >10 |
| Polyglyceryl-10 pentaoleate | 3.5 |
| Caprylic/capric glycerides | <10 |
| Polyglyceryl-6 oleate | 9 |
| Sorbitan monoisostearate | 4.7 |
| PEG-400 distearate | >10 |
| CCCCCCCCCCCCCC(=O)OCC(O)CO (centres unmarked) [Glyceryl monomyristate (C14), Glyceryl monomyristate] | 3-4 |
| CCCCCCCC/C=C/CCCCCCCC(=O)OCC(O)CO (centres unmarked) [Monoelaidin (C18:1), Monoelaidin] | <10 |
| PEG-4 stearate | 6.5 |
| PEG-6 dilaurate | 9.8 |
| Dimyristin [Dimyristin (C14)] | <10 |
| PEG-3 oleyl ether | <10 |
| Glyceryl dioleate | 3-4 |
| Glyceryl mono-, dioleate | <10 |
| PEG 400 dioleate | >10 |
| PEG-6 sorbitan monostearate | 11 |
| CCCCCCCC(=O)OCC(C)OC(=O)CCCCCCC (centres unmarked) [Propylene glycol dioctanoate] | >6 |
| Polyglyceryl-10 trioleate | 7 |
| Polyglyceryl-4 stearate | 5-6 |
| PEG-200 oleate | >10 |
| PEG-2 stearate | 4 |
| PEG-10 dipalmitate | >10 |
| PEG-40 stearate | >10 |
| CCCCCCCCCCCC(=O)OCC(O)CO (centres unmarked) [Glyceryl monolaurate] | 6.8 |

| Molecule | HLB |
| --- | --- |
| Polyglyceryl-6 ricinoleate | >8 |
| Polyglyceryl-2 dioleate | 7 |
| PEG-7 oleate | 10.4 |
| PEG 100,200,300 monolaurate | >10 |
| Dipalmitolein [Dipalmitolein (C16:1)] | <10 |
| Sucrose distearate | 3 |
| PEG-4 dilaurate | 7 |
| PEG 4-100 monooleate | >8 |
| CCCCC/C=C\C/C=C\CCCCCCCC(=O)OCC [Ethyl linoleate] | <10 |
| PEG 400-1000 monostearate | >10 |
| Distearin | <10 |
| PEG-40 oleate | 17.4 |
| PEG-4 oleate | 8.3 |
| Sucrose monopalmitate | >10 |
| PEG-100 oleate | 18.8 |
| CCCCCCCCCCCCCCCCCC(=O)OCC(COC(=O)CCCCCCCCCCCCCCCCC)(COC(=O)CCCCCCCCCCCCCCCCC)COC(=O)CCCCCCCCCCCCCCCCC [Pentaerythrityl tetrastearate] | <10 |
| Phytosterol | <10 |
| PEG-4 dioleate | 6 |
| CCCCCCCCCCCCOS(=O)(=O)[O-].[Na+] [Sodium lauryl sulfate (dodecyl), Sodium lauryl sulfate] | 40 |
| Polyglyceryl-10 oleate | 14 |
| PEG-30 glyceryl oleate | >10 |
| PEG-600 oleate | >10 |
| Polyglyceryl-2 isostearate | 5-7 |
| PEG 400 distearate | >10 |
| PEG-12 stearate | 14 |
| PEG-24 cholesterol ether | >10 |

| Molecule | HLB |
| --- | --- |
| PEG-400 dioleate | >10 |
| PEG-25 phyto sterol | >10 |
| CCCCCCCC/C=C\CCCCCCCC(=O)OCC(COC(=O)CCCCCCC/C=C\CCCCCCCC)(COC(=O)CCCCCCC/C=C\CCCCCCCC)COC(=O)CCCCCCC/C=C\CCCCCCCC [Pentaerythrityl tetraoleate] | <10 |
| CCCCCCCCCCCCCCCCCC(=O)OCC(CO)(CO)COC(=O)CCCCCCCCCCCCCCCCC [Pentaerythrityl distearate] | <10 |
| Dicaprin [Dicaprin (C10)] | <10 |
| CCCCCC[C@@H](O)C/C=C\CCCCCCCC(=O)OCC(O)CO (some centres unmarked) [Glyceryl ricinoleate] | 6 |
| Polyglyceryl-6 pentaoleate | <10 |
| CCCCCCCCCCCCCC(=O)OC(C)C [Isopropyl myristate] | <10 |
| Propylene glycol dicaprylate/dicaprate | >6 |
| PEG-6 stearate | 9.7 |
| Polyglyceryl-10 decaisostearate | <10 |
| CCCCCCCCCC(=O)OCC(O)CO (centres unmarked) [Monocaprin] | <10 |
| Pentaerythrityl tetracaprylate/tetracaprate | <10 |
| PEG-6 dioleate | 7.2 |
| Glyceryl citrate/lactate/oleate/linoleate | <10 |
| PEG-12 dilaurate | 11.7 |
| Glyceryl dilaurate [Glyceryl dilaurate (C12)] | 3-4 |
| CCCCCCCCCCCCCCCCCC(=O)OCC(O)CO (centres unmarked) [Glycerol monostearate] | 5-9 |
| Polyglyceryl-4 pentaoleate | <10 |
| PEG-100 stearate | 19 |
| PEG-12 oleate | 14 |
| CCCCCCCCCCCCCCCCCC(=O)OCC(O)CO (centres unmarked) [Glyceryl monostearate] | 4.4 |
| PEG-4 distearate | 5 |
